# Experimental data reported in ChEMBL document CHEMBL5046315, “CRCM5484: A BET-BDII Selective Compound with Differential Anti-leukemic Drug Modulation” (J Med Chem, 2022).
# Active and inactive are the calls of the source. The rule behind the calls is not given here.
# What was measured:
# [1] = biological target: Bromodomain-containing protein 3 (Homo sapiens, UniProt Q15059); assay: Inhibition of BRD3-BD2 (unknown origin) assessed as dissociation constant by ITC method
# [2] = biological target: T1, E3 ubiquitin-protein ligase TRIM33 (Homo sapiens) (UniProt Q9UPN9); assay: Binding affinity to partial length human TRIM33 (D882 to A1087 residues) expressed in bacterial system at 1 uM by BROMOscan method relative to control
# T1 sequence (whole entry): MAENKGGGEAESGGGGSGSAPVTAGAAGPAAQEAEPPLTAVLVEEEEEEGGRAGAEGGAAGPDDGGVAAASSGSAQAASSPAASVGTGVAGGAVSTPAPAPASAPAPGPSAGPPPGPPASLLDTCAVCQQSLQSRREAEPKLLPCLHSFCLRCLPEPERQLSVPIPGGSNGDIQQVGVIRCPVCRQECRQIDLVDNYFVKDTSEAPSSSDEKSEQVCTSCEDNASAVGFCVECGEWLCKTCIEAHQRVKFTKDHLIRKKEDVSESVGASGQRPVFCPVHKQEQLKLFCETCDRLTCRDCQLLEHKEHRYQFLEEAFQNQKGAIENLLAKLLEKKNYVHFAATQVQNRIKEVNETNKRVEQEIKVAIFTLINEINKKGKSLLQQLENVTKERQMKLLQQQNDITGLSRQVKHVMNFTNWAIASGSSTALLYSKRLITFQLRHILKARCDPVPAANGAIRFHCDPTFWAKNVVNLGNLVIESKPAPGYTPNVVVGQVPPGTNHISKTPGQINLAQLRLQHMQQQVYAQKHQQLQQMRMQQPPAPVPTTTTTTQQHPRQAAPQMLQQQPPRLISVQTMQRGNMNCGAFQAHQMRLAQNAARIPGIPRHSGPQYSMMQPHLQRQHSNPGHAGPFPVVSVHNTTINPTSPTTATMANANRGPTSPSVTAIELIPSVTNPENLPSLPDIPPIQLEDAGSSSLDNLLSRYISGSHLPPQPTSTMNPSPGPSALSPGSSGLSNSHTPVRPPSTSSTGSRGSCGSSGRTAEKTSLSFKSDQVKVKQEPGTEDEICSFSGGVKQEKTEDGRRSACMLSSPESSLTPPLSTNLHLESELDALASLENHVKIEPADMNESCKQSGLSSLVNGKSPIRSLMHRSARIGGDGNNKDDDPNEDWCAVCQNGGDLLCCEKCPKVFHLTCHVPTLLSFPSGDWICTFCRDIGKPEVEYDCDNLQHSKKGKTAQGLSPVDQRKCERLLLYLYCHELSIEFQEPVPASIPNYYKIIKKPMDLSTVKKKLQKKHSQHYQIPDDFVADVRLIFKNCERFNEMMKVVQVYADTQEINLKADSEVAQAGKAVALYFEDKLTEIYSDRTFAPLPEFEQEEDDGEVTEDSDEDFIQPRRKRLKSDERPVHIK
# K562 = assay: Cytotoxicity against human K562 cells assessed as reduction in cell viability incubated for 72 hrs; type: functional, cell-based; conditions: K562, 72 h
# CCRF-CEM [3] = assay: Potentiation of arsenic-induced antileukemic activity against human CCRF-CEM cells at 4.3 uM in presence of bone-marrow derived stromal cell-conditioned medium; type: functional, cell-based
# CCRF-CEM [4] = assay: Potentiation of decitabine-induced antileukemic activity against human CCRF-CEM cells at 4.3 uM in presence of bone-marrow derived stromal cell-conditioned medium; type: functional, cell-based
# CCRF-CEM [5] = assay: Potentiation of erlotinib-induced antileukemic activity against human CCRF-CEM cells at 4.3 uM in presence of bone-marrow derived stromal cell-conditioned medium; type: functional, cell-based
# CCRF-CEM [6] = assay: Potentiation of gileritinib-induced antileukemic activity against human CCRF-CEM cells at 4.3 uM in presence of bone-marrow derived stromal cell-conditioned medium; type: functional, cell-based
# CCRF-CEM [7] = assay: Potentiation of idelalisib-induced antileukemic activity against human CCRF-CEM cells at 4.3 uM in presence of bone-marrow derived stromal cell-conditioned medium; type: functional, cell-based
# CCRF-CEM [8] = assay: Potentiation of midostaurin-induced antileukemic activity against human CCRF-CEM cells at 4.3 uM in presence of bone-marrow derived stromal cell-conditioned medium; type: functional, cell-based
# U-937 [9] = assay: Potentiation of bosutinib-induced antileukemic activity against human U-937 cells at 4.3 uM in presence of bone-marrow derived stromal cell-conditioned medium; type: functional, cell-based
# U-937 [10] = assay: Potentiation of etoposide-induced antileukemic activity against human U-937 cells at 4.3 uM in presence of bone-marrow derived stromal cell-conditioned medium; type: functional, cell-based
# U-937 [11] = assay: Potentiation of -nutlin 3-induced antileukemic activity against human U-937 cells at 4.3 uM in presence of bone-marrow derived stromal cell-conditioned medium; type: functional, cell-based
# U-937 [12] = assay: Potentiation of ponatinib-induced antileukemic activity against human U-937 cells at 4.3 uM in presence of bone-marrow derived stromal cell-conditioned medium; type: functional, cell-based
# U-937 [13] = assay: Potentiation of rigosertib-induced antileukemic activity against human U-937 cells at 4.3 uM in presence of bone-marrow derived stromal cell-conditioned medium; type: functional, cell-based
# U-937 [14] = assay: Potentiation of SGI-1776-induced antileukemic activity against human U-937 cells at 4.3 uM in presence of bone-marrow derived stromal cell-conditioned medium; type: functional, cell-based
# U-937 [15] = assay: Potentiation of sorafenib-induced antileukemic activity against human U-937 cells at 4.3 uM in presence of bone-marrow derived stromal cell-conditioned medium; type: functional, cell-based
# MOLM-14 [16] = assay: Potentiation of AT9283-induced antileukemic activity against human MOLM-14 cells at 4.3 uM in presence of bone-marrow derived stromal cell-conditioned medium; type: functional, cell-based
# MOLM-14 [17] = assay: Potentiation of birinapant-induced antileukemic activity against human MOLM-14 cells at 4.3 uM in presence of bone-marrow derived stromal cell-conditioned medium; type: functional, cell-based
# MOLM-14 [18] = assay: Potentiation of bleomycine-induced antileukemic activity against human MOLM-14 cells at 4.3 uM in presence of bone-marrow derived stromal cell-conditioned medium; type: functional, cell-based
# MOLM-14 [19] = assay: Potentiation of crenolatinib-induced antileukemic activity against human MOLM-14 cells at 4.3 uM in presence of bone-marrow derived stromal cell-conditioned medium; type: functional, cell-based
# MOLM-14 [20] = assay: Potentiation of dasatinib-induced antileukemic activity against human MOLM-14 cells at 4.3 uM in presence of bone-marrow derived stromal cell-conditioned medium; type: functional, cell-based
# MOLM-14 [21] = assay: Potentiation of entinostat-induced antileukemic activity against human MOLM-14 cells at 4.3 uM in presence of bone-marrow derived stromal cell-conditioned medium; type: functional, cell-based
# MOLM-14 [22] = assay: Potentiation of idasanutlin-induced antileukemic activity against human MOLM-14 cells at 4.3 uM in presence of bone-marrow derived stromal cell-conditioned medium; type: functional, cell-based
# MOLM-14 [23] = assay: Potentiation of midostaurin-induced antileukemic activity against human MOLM-14 cells at 4.3 uM in presence of bone-marrow derived stromal cell-conditioned medium; type: functional, cell-based
# MOLM-14 [24] = assay: Potentiation of ruxolitinib-induced antileukemic activity against human MOLM-14 cells at 4.3 uM in presence of bone-marrow derived stromal cell-conditioned medium; type: functional, cell-based
# MOLM-14 [25] = assay: Potentiation of tretinoin-induced antileukemic activity against human MOLM-14 cells at 4.3 uM in presence of bone-marrow derived stromal cell-conditioned medium; type: functional, cell-based
# MOLM-14 [26] = assay: cells; conditions: Homo sapiens, MOLM-14, 72 h
# Description: Cytotoxicity against human MOLM-14 cells assessed as reduction in cell viability incubated for 72 hrs
# Bromodomain-containing protein 3, sequence (Q15059 whole entry, the tested form may be a part): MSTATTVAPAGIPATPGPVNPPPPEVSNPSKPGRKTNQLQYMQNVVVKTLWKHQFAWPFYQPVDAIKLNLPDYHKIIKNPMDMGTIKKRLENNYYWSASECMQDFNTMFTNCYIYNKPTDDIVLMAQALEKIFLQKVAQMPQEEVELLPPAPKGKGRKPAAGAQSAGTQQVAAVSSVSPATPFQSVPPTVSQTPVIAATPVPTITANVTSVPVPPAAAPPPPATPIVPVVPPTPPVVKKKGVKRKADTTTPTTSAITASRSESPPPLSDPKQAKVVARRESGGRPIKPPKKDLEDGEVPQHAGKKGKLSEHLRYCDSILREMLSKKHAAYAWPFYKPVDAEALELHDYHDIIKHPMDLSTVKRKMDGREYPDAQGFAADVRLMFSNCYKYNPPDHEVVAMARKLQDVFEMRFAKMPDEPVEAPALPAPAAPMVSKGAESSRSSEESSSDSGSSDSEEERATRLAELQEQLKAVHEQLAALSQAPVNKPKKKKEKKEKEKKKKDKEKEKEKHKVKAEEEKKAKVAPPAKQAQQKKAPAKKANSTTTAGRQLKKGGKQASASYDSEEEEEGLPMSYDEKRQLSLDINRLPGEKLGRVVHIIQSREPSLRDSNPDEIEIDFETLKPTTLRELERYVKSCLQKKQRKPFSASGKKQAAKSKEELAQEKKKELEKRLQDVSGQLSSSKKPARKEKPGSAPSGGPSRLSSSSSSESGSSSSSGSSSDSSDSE
smiles,measurement,setting,value
CC(=O)N1CCc2c(sc3nc(SCC(=O)Nc4cccnc4C)n(Cc4ccco4)c(=O)c23)C1,Kd,[1],0.15 µM
same,Activity,[2],52%
same,EC50,K562,> 5 µM
same,Activity,CCRF-CEM [3],inactive
same,Activity,CCRF-CEM [4],inactive
same,Activity,CCRF-CEM [5],inactive
same,Activity,CCRF-CEM [6],inactive
same,Activity,CCRF-CEM [7],inactive
same,Activity,CCRF-CEM [8],inactive
same,Activity,U-937 [9],inactive
same,Activity,U-937 [10],inactive
same,Activity,U-937 [11],inactive
same,Activity,U-937 [12],inactive
same,Activity,U-937 [13],inactive
same,Activity,U-937 [14],inactive
same,Activity,U-937 [15],inactive
same,Activity,MOLM-14 [16],inactive
same,Activity,MOLM-14 [17],inactive
same,Activity,MOLM-14 [18],inactive
same,Activity,MOLM-14 [19],inactive
same,Activity,MOLM-14 [20],inactive
same,Activity,MOLM-14 [21],inactive
same,Activity,MOLM-14 [22],inactive
same,Activity,MOLM-14 [23],inactive
same,Activity,MOLM-14 [24],inactive
same,Activity,MOLM-14 [25],inactive
same,EC50,MOLM-14 [26],8.5 µM
